Measured values published in patent US20220016154A1, “TREATMENT OF NEURONAL MOSAICISM IN DEMENTIA” (Crownview Medical Group, Inc., priority 2020, published 2022).

Columns and labels:
[1] = system: patient with advanced dementia; assay: Case report: dementia patient administered a regimen of ZDV (Retrovir), clinical observation and SMMSE; type: in vivo, human; conditions: one patient, SMMSE 2 to 4 before treatment; after 8 weeks of treatment
HIV-associated dementia = conditions: HIV patients, antiretroviral therapy; cited from earlier work

Cc1cn([C@H]2C[C@H](N=[N+]=[N-])[C@@H](CO)O2)c(=O)[nH]c1=O [Zidovudine]
SMMSE scores [1]: not consistently improved | ability to remember and communicate about where they lived [1]: specific improvements in their ability to remember and communicate about where they lived | alertness and awareness of surroundings [1]: more alert and aware of their surroundings | progression of HIV-associated dementia (HIV-associated dementia): slowed
